Measurements published in the supplement of paper PMC10307832.

Assays:
Test in all cases: relative viability (nuclei count vs DMSO), 5 days (fraction); higher = more cells survive
[1] = tested on: CAL-12T
Procedure, shortened: (§1)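 Lung cancer cell lines, seeded in 1536-well plates, were treated the following day by pin tool with a single drug or with five library-drug doses (not always all listed) in √10 steps on top of a fixed anchor-drug dose. Cells were fixed and nuclei stained in one step after 5 days, and nuclei were counted. Relative viability is the nuclei count for treated wells divided by that for vehicle wells, reported as medians of duplicate plates.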

[2] = tested on: ChaGo-K-1
Procedure, shortened: as §1

[3] = tested on: EMC-BAC-2
Procedure, shortened: as §1

[4] = tested on: HCC-366
Procedure, shortened: as §1

[5] = tested on: HCC-78
Procedure, shortened: as §1

[6] = tested on: HOP-62
Procedure, shortened: as §1

[7] = tested on: LC-2-ad
Procedure, shortened: as §1

[8] = tested on: LK-2
Procedure, shortened: as §1

[9] = tested on: NCI-H1355
Procedure, shortened: as §1

[10] = tested on: NCI-H1734
Procedure, shortened: as §1

[11] = tested on: NCI-H1993
Procedure, shortened: as §1

[12] = tested on: NCI-H2009
Procedure, shortened: as §1

In the case of O=C(O)CCCCC(CCSCc1ccccc1)SCc1ccccc1 (configuration not stated) [CPI-613] + Nc1nc2[nH]cc(CCc3ccc(C(=O)N[C@@H](CCC(=O)O)C(=O)O)cc3)c2c(=O)[nH]1 [Pemetrexed] (partner 0.2 µM), the relative viability ([1]; first compound 5 µM) is reported as 1.02, the relative viability ([1]; first compound 15.81 µM) is reported as 1.03 and the relative viability ([1]; first compound 50 µM) is reported as 1.02. For the same compound, the relative viability ([1]; first compound 158.11 µM) was 0.0985, the relative viability ([1]; first compound 500 µM) was 0.0501 and the relative viability ([2]; first compound 5 µM) was 0.269. It also gave a relative viability ([2]; first compound 15.81 µM) of 0.261, a relative viability ([2]; first compound 50 µM) of 0.264 and a relative viability ([2]; first compound 158.11 µM) of 0.248. The relative viability ([2]; first compound 500 µM) was 0.187, the relative viability ([3]; first compound 5 µM) was 0.435 and the relative viability ([3]; first compound 15.81 µM) was 0.409. For the same compound, the relative viability ([3]; first compound 50 µM) was 0.456, the relative viability ([3]; first compound 158.11 µM) was 0.461 and the relative viability ([3]; first compound 500 µM) was 0.349. The relative viability ([4]; first compound 5 µM) was 0.135, the relative viability ([4]; first compound 15.81 µM) was 0.152 and the relative viability ([4]; first compound 50 µM) was 0.162. It also gave a relative viability ([4]; first compound 158.11 µM) of 0.123, a relative viability ([4]; first compound 500 µM) of 0.0078 and a relative viability ([5]; first compound 15.81 µM) of 0.898. It also gave a relative viability ([5]; first compound 50 µM) of 0.906, a relative viability ([5]; first compound 158.11 µM) of 0.874 and a relative viability ([5]; first compound 500 µM) of 0.913. For the same compound, the relative viability ([6]; first compound 5 µM) was 0.321, the relative viability ([6]; first compound 15.81 µM) was 0.309 and the relative viability ([6]; first compound 50 µM) was 0.272. It also gave a relative viability ([6]; first compound 158.11 µM) of 0.163, a relative viability ([6]; first compound 500 µM) of 0.12 and a relative viability ([7]; first compound 5 µM) of 0.256. It also gave a relative viability ([7]; first compound 15.81 µM) of 0.275, a relative viability ([7]; first compound 50 µM) of 0.254 and a relative viability ([7]; first compound 158.11 µM) of 0.116. The relative viability ([7]; first compound 500 µM) was 0.0144, the relative viability ([8]; first compound 5 µM) was 0.337 and the relative viability ([8]; first compound 15.81 µM) was 0.225. The relative viability ([8]; first compound 50 µM) was 0.324, the relative viability ([8]; first compound 158.11 µM) was 0.265 and the relative viability ([8]; first compound 500 µM) was 0.241. The relative viability ([9]; first compound 5 µM) was 1.02, the relative viability ([9]; first compound 15.81 µM) was 0.983 and the relative viability ([9]; first compound 50 µM) was 1.06. It also gave a relative viability ([9]; first compound 158.11 µM) of 0.754, a relative viability ([9]; first compound 500 µM) of 0.457 and a relative viability ([10]; first compound 5 µM) of 0.387. For the same compound, the relative viability ([10]; first compound 15.81 µM) was 0.418, the relative viability ([10]; first compound 50 µM) was 0.411 and the relative viability ([10]; first compound 158.11 µM) was 0.38. The relative viability ([10]; first compound 500 µM) was 0.131, the relative viability ([11]; first compound 5 µM) was 0.601 and the relative viability ([11]; first compound 15.81 µM) was 0.522. It also gave a relative viability ([11]; first compound 50 µM) of 0.537, a relative viability ([11]; first compound 158.11 µM) of 0.378 and a relative viability ([11]; first compound 500 µM) of 0.278. The relative viability ([12]; first compound 5 µM) was 0.985, the relative viability ([12]; first compound 15.81 µM) was 1 and the relative viability ([12]; first compound 50 µM) was 0.947.
